{"source": "ChEMBL document CHEMBL4828735", "about": "“Discovery of N-((3S,4S)-4-(3,4-Difluorophenyl)piperidin-3-yl)-2-fluoro-4-(1-methyl-1H-pyrazol-5-yl)benzamide (Hu7691), a Potent and Selective Akt Inhibitor That Enables Decrease of Cutaneous Toxicity” (J Med Chem, 2021)", "key": {"[1]": {"tested_on": "LNCaP", "test": "Antiproliferative activity against human LNCaP cells assessed as inhibition of cell growth incubated for 72 hrs by SRB method", "type": "functional, cell-based"}, "[2]": {"test": "Drug metabolism in po dosed Sprague-Dawley rat urine assessed as M3 metabolite formation measured upto 72 hrs by UPLC-TOF-MS/MS analysis", "type": "ADME, organism-based", "conditions": "in vivo"}, "[3]": {"test": "Microsomal stability in rat liver microsomes assessed as intrinsic clearance at 50 uM preincubated for 5 mins with NADPH followed by compound addition and measured upto 60 mins by LC-MS/MS analysis", "type": "ADME, Microsome", "conditions": "read-out: CLH"}, "[4]": {"test": "Drug metabolism in po dosed Sprague-Dawley rat feces assessed as M1 metabolite formation measured upto 24 hrs by UPLC-TOF-MS/MS analysis", "type": "ADME, organism-based", "conditions": "in vivo"}, "[5]": {"biological_target": "Serine/threonine-protein kinase Chk1 (Homo sapiens, UniProt O14757)", "sequence (O14757 whole entry)": "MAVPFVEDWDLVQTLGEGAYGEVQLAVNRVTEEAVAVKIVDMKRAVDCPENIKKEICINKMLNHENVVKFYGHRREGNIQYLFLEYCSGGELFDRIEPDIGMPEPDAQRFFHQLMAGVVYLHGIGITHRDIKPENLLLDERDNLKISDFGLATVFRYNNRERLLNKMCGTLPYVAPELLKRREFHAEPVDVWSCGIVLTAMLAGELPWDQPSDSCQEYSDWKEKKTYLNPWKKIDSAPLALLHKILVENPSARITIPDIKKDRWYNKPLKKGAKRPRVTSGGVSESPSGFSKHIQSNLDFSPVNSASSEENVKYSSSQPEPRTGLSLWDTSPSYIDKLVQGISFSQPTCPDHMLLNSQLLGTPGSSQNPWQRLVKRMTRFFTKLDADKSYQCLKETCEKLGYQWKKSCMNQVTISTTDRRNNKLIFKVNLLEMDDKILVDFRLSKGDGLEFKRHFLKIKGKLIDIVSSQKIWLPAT", "test": "Inhibition of CHK1 (unknown origin)"}, "[6]": {"biological_target": "Testis-specific serine/threonine-protein kinase 1 (Homo sapiens, UniProt Q9BXA7)", "sequence (Q9BXA7 whole entry)": "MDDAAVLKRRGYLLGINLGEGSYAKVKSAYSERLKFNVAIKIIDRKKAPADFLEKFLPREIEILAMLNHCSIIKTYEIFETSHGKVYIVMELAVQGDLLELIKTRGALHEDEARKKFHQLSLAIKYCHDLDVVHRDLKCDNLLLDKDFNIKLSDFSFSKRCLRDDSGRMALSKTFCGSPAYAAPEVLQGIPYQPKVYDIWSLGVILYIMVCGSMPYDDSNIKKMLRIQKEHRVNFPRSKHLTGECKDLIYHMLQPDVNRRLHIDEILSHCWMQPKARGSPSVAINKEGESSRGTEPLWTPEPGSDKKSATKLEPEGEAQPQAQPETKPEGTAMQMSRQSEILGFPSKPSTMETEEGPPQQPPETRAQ", "test": "Inhibition of TSSK1 (unknown origin)"}, "[7]": {"test": "Drug metabolism in po dosed Sprague-Dawley rat urine assessed as M4 metabolite formation measured upto 72 hrs by UPLC-TOF-MS/MS analysis", "type": "ADME, organism-based", "conditions": "in vivo"}, "[8]": {"biological_target": "Aurora kinase A (Homo sapiens, UniProt O14965)", "sequence (O14965 whole entry)": "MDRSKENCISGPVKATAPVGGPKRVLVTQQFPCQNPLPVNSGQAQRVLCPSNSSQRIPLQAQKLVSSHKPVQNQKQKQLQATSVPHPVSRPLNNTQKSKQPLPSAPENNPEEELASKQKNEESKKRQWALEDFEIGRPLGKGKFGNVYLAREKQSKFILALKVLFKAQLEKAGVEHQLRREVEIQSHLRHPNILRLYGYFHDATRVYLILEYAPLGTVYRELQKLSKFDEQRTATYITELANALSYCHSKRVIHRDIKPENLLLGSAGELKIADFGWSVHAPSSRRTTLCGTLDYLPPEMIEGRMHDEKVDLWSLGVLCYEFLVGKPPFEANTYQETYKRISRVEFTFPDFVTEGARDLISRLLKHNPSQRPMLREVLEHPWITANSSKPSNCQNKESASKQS", "test": "Inhibition of Aurora A (unknown origin)"}, "[9]": {"tested_on": "786-0", "test": "Antiproliferative activity against human 786-0 cells assessed as inhibition of cell growth incubated for 72 hrs by SRB assay", "type": "functional, cell-based", "conditions": "786-0, 72 h"}, "[10]": {"biological_target": "Cyclin-dependent kinase 2 (Homo sapiens, UniProt P24941)", "test": "Inhibition of CDK2 (unknown origin)"}, "[11]": {"test": "Microsomal stability in mouse liver microsomes assessed as intrinsic clearance at 50 uM preincubated for 5 mins with NADPH followed by compound addition and measured upto 60 mins by LC-MS/MS analysis", "type": "ADME, Microsome", "conditions": "read-out: CLH"}, "[12]": {"test": "AUC(0 to infinity) in Beagle dog at 20 mg/kg, ig measured upto 96 hrs by LC-MS/MS analysis", "type": "ADME, organism-based, Canis lupus familiaris", "design": "route […], dose 20 mg/kg, time <=96", "conditions": "in vivo, po"}, "[13]": {"tested_on": "786-0", "test": "Antitumor activity against human 786-0 cells xenografted in dosed BALB/c nude mouse assessed as tumor growth inhibition at 12.5 to 50 mg/kg, ig administered once daily for 22 days", "type": "functional", "conditions": "dose 12.5-50 mg/kg, time 22 day"}, "[14]": {"test": "Antiproliferative activity against human 95-D cells assessed as inhibition of cell growth incubated for 72 hrs by SRB method", "type": "functional, cell-based"}, "[15]": {"biological_target": "Cytochrome P450 1A2 (Homo sapiens, UniProt P05177)", "sequence (P05177 whole entry)": "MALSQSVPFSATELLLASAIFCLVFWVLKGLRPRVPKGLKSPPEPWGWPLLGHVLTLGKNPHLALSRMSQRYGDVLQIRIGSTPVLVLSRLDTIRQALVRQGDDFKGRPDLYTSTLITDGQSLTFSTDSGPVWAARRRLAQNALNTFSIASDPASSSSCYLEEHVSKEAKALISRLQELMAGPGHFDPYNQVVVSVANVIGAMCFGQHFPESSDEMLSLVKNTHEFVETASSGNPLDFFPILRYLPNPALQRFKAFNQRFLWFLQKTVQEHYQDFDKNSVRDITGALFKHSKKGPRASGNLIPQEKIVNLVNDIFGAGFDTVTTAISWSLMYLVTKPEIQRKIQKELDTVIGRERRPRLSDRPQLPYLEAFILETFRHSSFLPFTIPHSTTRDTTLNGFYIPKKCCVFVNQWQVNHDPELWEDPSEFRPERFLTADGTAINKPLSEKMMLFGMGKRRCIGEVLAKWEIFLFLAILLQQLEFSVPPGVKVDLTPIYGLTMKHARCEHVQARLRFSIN", "test": "Inhibition of CYP1A2 (unknown origin)", "type": "ADME"}, "[16]": {"tested_on": "U-251", "test": "Antiproliferative activity against human U251 cells assessed as inhibition of cell growth incubated for 72 hrs by SRB method", "type": "functional, cell-based", "conditions": "U-251, 72 h"}, "[17]": {"biological_target": "RAC-gamma serine/threonine-protein kinase (Homo sapiens, UniProt Q9Y243)", "sequence (Q9Y243 whole entry)": "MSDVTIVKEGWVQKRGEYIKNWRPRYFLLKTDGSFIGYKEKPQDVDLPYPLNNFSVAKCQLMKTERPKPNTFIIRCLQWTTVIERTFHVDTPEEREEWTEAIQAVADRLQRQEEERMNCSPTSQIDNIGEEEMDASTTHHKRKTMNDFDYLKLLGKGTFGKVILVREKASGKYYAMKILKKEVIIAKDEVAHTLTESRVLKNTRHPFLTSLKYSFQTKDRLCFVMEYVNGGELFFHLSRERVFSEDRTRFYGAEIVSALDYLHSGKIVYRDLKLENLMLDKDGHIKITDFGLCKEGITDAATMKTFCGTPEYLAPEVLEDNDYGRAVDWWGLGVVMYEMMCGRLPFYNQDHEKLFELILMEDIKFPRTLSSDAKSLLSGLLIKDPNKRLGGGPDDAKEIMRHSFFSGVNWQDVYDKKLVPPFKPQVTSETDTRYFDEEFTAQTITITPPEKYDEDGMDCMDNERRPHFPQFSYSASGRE", "test": "Inhibition of AKT3 (unknown origin)"}, "[18]": {"biological_target": "Protein kinase C eta type (Homo sapiens, UniProt P24723)", "test": "Inhibition of PKCeta (unknown origin)"}, "[19]": {"test": "Microsomal stability in human liver microsomes assessed as half life at 50 uM preincubated for 5 mins with NADPH followed by compound addition and measured upto 60 mins by LC-MS/MS analysis", "type": "ADME, Microsome"}, "[20]": {"test": "AUC(0 to t) in Beagle dog at 20 mg/kg, ig measured upto 96 hrs by LC-MS/MS analysis", "type": "ADME, organism-based, Canis lupus familiaris", "design": "route […], dose 20 mg/kg, time <=96", "conditions": "in vivo, po"}, "[21]": {"biological_target": "cGMP-dependent protein kinase 2 (Homo sapiens) (UniProt Q13237)", "test": "Inhibition of PRKG2 (unknown origin) at 0.5 uM"}, "[22]": {"biological_target": "RAC-alpha serine/threonine-protein kinase (Homo sapiens, UniProt P31749)", "sequence (P31749 whole entry, the tested form may be a part)": "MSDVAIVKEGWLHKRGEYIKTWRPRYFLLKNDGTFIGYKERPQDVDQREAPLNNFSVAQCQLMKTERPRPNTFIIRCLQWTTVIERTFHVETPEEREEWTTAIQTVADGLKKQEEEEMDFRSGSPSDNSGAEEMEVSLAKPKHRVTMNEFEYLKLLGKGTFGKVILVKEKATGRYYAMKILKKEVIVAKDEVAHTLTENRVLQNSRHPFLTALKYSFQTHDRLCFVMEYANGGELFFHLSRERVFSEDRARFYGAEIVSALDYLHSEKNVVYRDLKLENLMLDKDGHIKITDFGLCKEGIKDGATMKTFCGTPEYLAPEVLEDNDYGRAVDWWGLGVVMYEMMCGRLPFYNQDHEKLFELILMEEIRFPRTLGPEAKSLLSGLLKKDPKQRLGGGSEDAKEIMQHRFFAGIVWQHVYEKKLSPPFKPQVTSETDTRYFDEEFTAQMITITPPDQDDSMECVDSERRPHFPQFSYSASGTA", "test": "Inhibition of N-terminal GST-tagged human AKT1 (104 to 408 residues) expressed in baculovirus infected Sf21 cells incubated for 1 hr in presence of ATP by mobility shift assay"}, "[23]": {"tested_on": "SK-OV-3", "test": "Antiproliferative activity against human SK-OV-3 cells assessed as inhibition of cell growth incubated for 72 hrs by SRB method", "type": "functional, cell-based", "conditions": "SK-OV-3, 72 h"}, "[24]": {"test": "AUC(0 to t) in Sprague-Dawley rat at 2 mg/kg, iv measured upto 24 hrs by LC-MS/MS analysis", "type": "ADME, organism-based", "design": "route intravenous, dose 2 mg/kg, time <=24", "conditions": "in vivo"}, "[25]": {"organism": "Homo sapiens", "test": "Inhibition of PKG (unknown origin) at 0.5 uM"}, "[26]": {"test": "Toxicity in mouse assessed as weight loss at 150 mg/kg", "type": "organism-based", "conditions": "in vivo"}, "[27]": {"tested_on": "OS-RC-2", "test": "Antiproliferative activity against human OS-RC-2 cells assessed as inhibition of cell growth incubated for 72 hrs by SRB method", "type": "functional, cell-based", "conditions": "OS-RC-2, 72 h"}, "[28]": {"test": "Toxicity in mouse assessed as death at 250 mg/kg", "type": "organism-based", "conditions": "in vivo"}, "[29]": {"test": "Toxicity in mouse assessed as reduction in activity at 150 mg/kg", "type": "organism-based", "conditions": "in vivo"}, "[30]": {"test": "AUC(0 to infinity) in Sprague-Dawley rat at 2 mg/kg, iv measured upto 24 hrs by LC-MS/MS analysis", "type": "ADME, organism-based", "design": "route intravenous, dose 2 mg/kg, time <=24", "conditions": "in vivo"}, "[31]": {"biological_target": "Phosphatidylinositol 4,5-bisphosphate 3-kinase catalytic subunit alpha isoform (Homo sapiens, UniProt P42336)", "sequence (P42336 whole entry, canonical isoform)": "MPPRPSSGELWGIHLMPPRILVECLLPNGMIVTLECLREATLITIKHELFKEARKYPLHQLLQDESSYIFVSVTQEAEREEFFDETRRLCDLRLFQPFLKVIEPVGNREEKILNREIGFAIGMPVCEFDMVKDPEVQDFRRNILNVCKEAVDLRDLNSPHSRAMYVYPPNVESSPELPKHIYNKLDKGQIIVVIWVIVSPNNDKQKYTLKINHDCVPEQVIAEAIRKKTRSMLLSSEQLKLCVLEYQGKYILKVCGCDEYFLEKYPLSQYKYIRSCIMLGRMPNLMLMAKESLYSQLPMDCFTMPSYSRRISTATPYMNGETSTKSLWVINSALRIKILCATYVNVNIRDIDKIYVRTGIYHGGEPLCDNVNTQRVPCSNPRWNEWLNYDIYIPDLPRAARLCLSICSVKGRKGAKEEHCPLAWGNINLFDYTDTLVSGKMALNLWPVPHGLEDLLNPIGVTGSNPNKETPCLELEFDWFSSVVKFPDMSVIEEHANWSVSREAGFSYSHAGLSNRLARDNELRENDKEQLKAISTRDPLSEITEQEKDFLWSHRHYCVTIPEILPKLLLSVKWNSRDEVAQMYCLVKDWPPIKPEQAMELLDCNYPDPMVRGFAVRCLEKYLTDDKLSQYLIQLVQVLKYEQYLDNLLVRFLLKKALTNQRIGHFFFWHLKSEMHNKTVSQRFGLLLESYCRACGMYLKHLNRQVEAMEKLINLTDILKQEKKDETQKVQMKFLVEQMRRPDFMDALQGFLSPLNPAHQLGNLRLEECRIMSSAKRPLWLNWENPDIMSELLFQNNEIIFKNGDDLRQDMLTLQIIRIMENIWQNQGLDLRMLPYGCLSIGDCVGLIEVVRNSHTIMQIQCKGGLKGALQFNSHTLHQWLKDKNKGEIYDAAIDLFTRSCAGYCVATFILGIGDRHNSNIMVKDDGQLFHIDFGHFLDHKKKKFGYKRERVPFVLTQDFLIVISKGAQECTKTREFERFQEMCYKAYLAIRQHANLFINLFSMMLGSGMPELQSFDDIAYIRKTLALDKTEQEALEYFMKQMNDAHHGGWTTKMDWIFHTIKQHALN", "test": "Inhibition of PI3Kalpha (unknown origin)"}, "[32]": {"tested_on": "786-0", "test": "Antiproliferative activity against human 786-0 cells assessed as inhibition of cell growth incubated for 72 hrs by SRB method", "type": "functional, cell-based", "conditions": "786-0, 72 h"}, "[33]": {"tested_on": "KHOS/NP", "test": "Antiproliferative activity against human KHOS cells assessed as inhibition of cell growth incubated for 72 hrs by SRB assay", "type": "functional, cell-based"}, "[34]": {"tested_on": "HepG2", "test": "Antiproliferative activity against human HepG2 cells assessed as inhibition of cell growth incubated for 72 hrs by SRB method", "type": "functional, cell-based", "conditions": "HepG2, 72 h"}, "[35]": {"test": "Toxicity in Sprague-Dawley rat assessed as effect on ovaries at 25 to 75 mg/kg administered daily for 4 weeks by histopathological analysis", "type": "organism-based", "conditions": "in vivo, 672 h, dose 25-75 mg/kg"}, "[36]": {"biological_target": "CYP2C19 (Homo sapiens, UniProt P33261)", "sequence (P33261 whole entry)": "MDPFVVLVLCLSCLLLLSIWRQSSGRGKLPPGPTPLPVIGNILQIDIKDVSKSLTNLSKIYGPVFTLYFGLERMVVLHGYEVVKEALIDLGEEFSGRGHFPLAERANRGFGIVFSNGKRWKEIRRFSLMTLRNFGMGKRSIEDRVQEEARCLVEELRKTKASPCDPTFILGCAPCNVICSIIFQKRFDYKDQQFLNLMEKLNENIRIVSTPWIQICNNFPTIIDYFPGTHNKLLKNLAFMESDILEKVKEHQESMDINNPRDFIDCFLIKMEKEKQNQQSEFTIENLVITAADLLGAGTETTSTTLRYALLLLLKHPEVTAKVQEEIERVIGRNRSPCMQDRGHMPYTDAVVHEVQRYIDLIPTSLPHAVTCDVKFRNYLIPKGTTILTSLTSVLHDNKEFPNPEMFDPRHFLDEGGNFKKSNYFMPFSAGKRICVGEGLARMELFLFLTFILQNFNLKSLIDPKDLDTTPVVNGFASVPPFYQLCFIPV", "test": "Inhibition of CYP2C19 (unknown origin) at 100 uM", "type": "ADME"}, "[37]": {"tested_on": "Bel-7402", "test": "Antiproliferative activity against human Bel-7402 cells assessed as inhibition of cell growth incubated for 72 hrs by SRB method", "type": "functional, cell-based", "conditions": "Bel-7402, 72 h"}, "[38]": {"test": "Drug metabolism in po dosed Sprague-Dawley rat urine assessed as M2 metabolite formation measured upto 72 hrs by UPLC-TOF-MS/MS analysis", "type": "ADME, organism-based", "conditions": "in vivo"}, "[39]": {"tested_on": "769-P", "test": "Antiproliferative activity against human 769-P cells assessed as inhibition of cell growth incubated for 72 hrs by SRB method", "type": "functional, cell-based"}, "[40]": {"biological_target": "ALK tyrosine kinase receptor (Homo sapiens, UniProt Q9UM73)", "test": "Inhibition of ALK (unknown origin)"}, "[41]": {"test": "Toxicity in Sprague-Dawley rat assessed as effect on spleen at 25 to 75 mg/kg administered daily for 4 weeks by histopathological analysis", "type": "organism-based", "conditions": "in vivo, 672 h, dose 25-75 mg/kg"}, "[42]": {"biological_target": "Cytochrome P450 3A4 (Homo sapiens, UniProt P08684)", "sequence (P08684 whole entry)": "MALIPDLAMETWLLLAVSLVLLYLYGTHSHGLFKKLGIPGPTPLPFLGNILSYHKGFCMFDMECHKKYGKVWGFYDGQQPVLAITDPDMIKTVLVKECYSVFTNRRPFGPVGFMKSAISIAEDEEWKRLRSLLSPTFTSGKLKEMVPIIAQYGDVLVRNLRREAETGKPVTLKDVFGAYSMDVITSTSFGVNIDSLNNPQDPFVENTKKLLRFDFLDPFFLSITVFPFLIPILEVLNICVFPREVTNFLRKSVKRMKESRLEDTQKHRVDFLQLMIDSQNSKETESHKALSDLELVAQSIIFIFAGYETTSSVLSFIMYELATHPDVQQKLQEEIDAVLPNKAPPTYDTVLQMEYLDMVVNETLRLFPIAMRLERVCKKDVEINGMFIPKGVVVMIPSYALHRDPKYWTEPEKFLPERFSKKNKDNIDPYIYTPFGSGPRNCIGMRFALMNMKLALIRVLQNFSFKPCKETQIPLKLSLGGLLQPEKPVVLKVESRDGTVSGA", "test": "Inhibition of CYP3A4 (unknown origin)", "type": "ADME"}, "[43]": {"biological_target": "hERG (KCNH2) (Homo sapiens, UniProt Q12809)", "test": "Inhibition of human ERG expressed in HEK293 cells at 3 uM by whole cell patch clamp method relative to control", "type": "cell-based", "conditions": "HEK293 cells expressing hERG"}}, "note": "pIC50: −log10 of the molar value. Active and inactive are the calls of the source. The calls are words filed in the database; no cut-off is given here.", "data": [{"compound": "Cl.Cn1nccc1-c1ccc(C(=O)N[C@@H]2CNCC[C@H]2c2ccc(F)c(F)c2)c(F)c1", "values": [{"measurement": "pIC50", "setting": "[1]", "value": 6.21}, {"measurement": "Drug metabolism", "setting": "[2]", "value": "Metabolite_Detected"}, {"measurement": "microsomal CLint at 50 µM", "setting": "[3]", "value": 20, "unit": "µL/min/mg"}, {"measurement": "Drug metabolism", "setting": "[4]", "value": "Metabolite_Detected"}, {"measurement": "pIC50", "setting": "[5]", "value": "< 5.00"}, {"measurement": "pIC50", "setting": "[6]", "value": "< 5.00"}, {"measurement": "Drug metabolism", "setting": "[7]", "value": "Metabolite_Detected"}, {"measurement": "pIC50", "setting": "[8]", "value": "< 5.00"}, {"measurement": "pIC50", "setting": "[9]", "value": 5.60}, {"measurement": "pIC50", "setting": "[10]", "value": "< 5.00"}, {"measurement": "microsomal CLint at 50 µM", "setting": "[11]", "value": 3.4, "unit": "µL/min/mg"}, {"measurement": "AUC(0-inf)", "setting": "[12]", "value": 36300, "unit": "ng·h/mL"}, {"measurement": "TGI", "setting": "[13]", "value": 70, "unit": "%"}, {"measurement": "pIC50", "setting": "[14]", "value": 5.99}, {"measurement": "pIC50", "setting": "[15]", "value": "< 4.00"}, {"measurement": "pIC50", "setting": "[16]", "value": 5.19}, {"measurement": "pIC50", "setting": "[17]", "value": 7.55}, {"measurement": "pIC50", "setting": "[18]", "value": "< 5.70"}, {"measurement": "half-life at 50 µM", "setting": "[19]", "value": 16.2, "unit": "h"}, {"measurement": "AUC(0-t) at 96 h", "setting": "[20]", "value": 33300, "unit": "ng·h/mL"}, {"measurement": "inhibition", "setting": "[21]", "value": "Active"}, {"measurement": "pIC50", "setting": "[22]", "value": 8.40}, {"measurement": "pIC50", "setting": "[23]", "value": 5.33}, {"measurement": "AUC(0-t) at 24 h", "setting": "[24]", "value": 459, "unit": "ng·h/mL"}, {"measurement": "inhibition", "setting": "[25]", "value": "Active"}, {"measurement": "Activity", "setting": "[26]", "value": "Toxic"}, {"measurement": "pIC50", "setting": "[27]", "value": 5.00}, {"measurement": "Activity", "setting": "[28]", "value": "Toxic"}, {"measurement": "Activity", "setting": "[29]", "value": "Toxic"}, {"measurement": "AUC(0-inf)", "setting": "[30]", "value": 533, "unit": "ng·h/mL"}, {"measurement": "pIC50", "setting": "[31]", "value": "< 5.00"}, {"measurement": "pIC50", "setting": "[32]", "value": 5.07}, {"measurement": "pIC50", "setting": "[33]", "value": 4.83}, {"measurement": "pIC50", "setting": "[34]", "value": 5.44}, {"measurement": "Activity", "setting": "[35]", "value": "Non-Toxic"}, {"measurement": "inhibition at 100 µM", "setting": "[36]", "value": 65, "unit": "%"}, {"measurement": "pIC50", "setting": "[37]", "value": 4.57}, {"measurement": "Drug metabolism", "setting": "[38]", "value": "Metabolite_Detected"}, {"measurement": "pIC50", "setting": "[39]", "value": 5.11}, {"measurement": "pIC50", "setting": "[40]", "value": "< 5.00"}, {"measurement": "Activity", "setting": "[41]", "value": "Non-Toxic"}, {"measurement": "pIC50", "setting": "[42]", "value": "< 4.00"}, {"measurement": "inhibition at 3 µM", "setting": "[43]", "value": 15.9, "unit": "%"}]}]}
